Test results taken from patent US20050070509A1, “Antimycotic agent” (priority 2001, published 2005).

Tests used:
Assay type in all cases: cell-based
[1] = tested on: Candida albicans; test: agar incorporation test, growth inhibition of yeasts; conditions: Sabouraud agar, 30° C., patient isolates
Procedure: (§1) The activity of the compound according to the invention as agent for inhibiting the growth of various types of yeasts was studied in an agar incorporation test. The nutrient medium used was Sabouraud agar. Several samples of each of the yeast types below, which were isolated directly from diseased patients, were tested: • a) Candida tropicalis • b) Candida albicans • c) Candida glabrata • d) Candida parapsilosis.
(§2) The cultures were supplemented with bis(N-cyclohexyldiazeniumdioxy)copper in such an amount that an end concentration of 25 or 50 ppm was obtained. The cultures were subsequently incubated at 30° C., and the growth of the isolates was assessed after an incubation period of 2 to 5 days.

[2] = tested on: Candida glabrata; test: as above; conditions: Sabouraud agar, 30° C., patient isolates
Procedure: as §1, §2

[3] = tested on: Candida parapsilosis; test: as above; conditions: Sabouraud agar, 30° C., patient isolates
Procedure: as §1, §2

[4] = tested on: Candida tropicalis; test: as above; conditions: Sabouraud agar, 30° C., patient isolates
Procedure: as §1, §2

[5] = tested on: Epidermophyton floccosum; test: agar incorporation test, growth inhibition of dermatophytes
Procedure: as §1, §2
(§3) The activity of the compound according to the invention for inhibiting the growth of the dermatophyte cultures below was studied in an agar incorporation test as described in Example 1. The active ingredient concentration in the samples amounted to 2.5, 5, 10, 15, 20, 25, 30, 35, 40, 45 and 50 ppm. The isolates were studied after an incubation period of 7, 14 and 21 days, and their growth was determined.

[6] = tested on: Microsporum canis; test: as above
Procedure: as §1, §2, §3

[7] = tested on: Scopulariopsis brevicaulis; test: as above
Procedure: as §1, §2, §3

[8] = tested on: Trichlorophyton rubrum; test: as above
Procedure: as §1, §2, §3

[9] = tested on: Trichophyton mentagrophytes; test: as above
Procedure: as §1, §2, §3

[10] = active ingredient 25 ppm, incubation 2 and 5 days
[11] = active ingredient 50 ppm, incubation 2 to 5 days

With `O=NN([O-])C1CCCCC1.O=NN([O-])C1CCCCC1.[Cu+2]` [bis(N-cyclohexyldiazeniumdioxy)copper] the “growth of the isolates” value [1, 10] was “still growing”, the “growth of the isolates” value [1, 11] was “no growth” and the “growth of the isolates” value [2, 10] was “still growing”. The “growth of the isolates” value [2, 11] was “no growth”, the “growth of the isolates” value [3, 10] was “still growing” and the “growth of the isolates” value [3, 11] was “no growth”. The “growth of the isolates” value [4, 10] was “still growing”, the “growth of the isolates” value [4, 11] was “no growth” and the “Effective active ingredient concentration” value ([5]; incubation period 7 days) was 15 ppm. The “Effective active ingredient concentration” value ([5]; incubation period 14 days) was 20 ppm, the “Effective active ingredient concentration” value ([5]; incubation period 21 days) was 20 ppm and the “Effective active ingredient concentration” value ([6]; incubation period 7 days) was “≦10 ppm”. For the same compound, the “Effective active ingredient concentration” value ([6]; incubation period 14 days) was 15 ppm, the “Effective active ingredient concentration” value ([6]; incubation period 21 days) was 15 ppm and the “Effective active ingredient concentration” value ([7]; incubation period 7 days) was 25 ppm. For the same compound, the “Effective active ingredient concentration” value ([7]; incubation period 14 days) was 35 ppm, the “Effective active ingredient concentration” value ([7]; incubation period 21 days) was 40 ppm and the “Effective active ingredient concentration” value ([8]; incubation period 7 days) was 15 ppm. The “Effective active ingredient concentration” value ([8]; incubation period 14 days) was 15 ppm, the “Effective active ingredient concentration” value ([8]; incubation period 21 days) was 15 ppm and the “Effective active ingredient concentration” value ([9]; incubation period 7 days) was 30 ppm. For the same compound, the “Effective active ingredient concentration” value ([9]; incubation period 14 days) was 30 ppm and the “Effective active ingredient concentration” value ([9]; incubation period 21 days) was 30 ppm.
